Patent US20010049372A1, “Antiviral nucleoside analogues” (BioChem Pharma Inc., priority 1998, published 2001)
Where two headings read alike, the source gives them in different places. Blank lines part the entries; values can stand above or below the molecule they belong to.

Tests used:
[1] = tested on: CBMCs; assay: Cellular toxicity by WST-1 staining; assay type: cell-based; settings: Table 4, day 7, read-out: CC50 (μM) WST-1 CBMC
Protocol: (§1) The cellular toxicity of the compounds were assessed on various cells using [^3H]-thymidine uptake. Various cells, including Molt-4, HT1080, DU-145, HepG-2 and HSF, were plated at a concentration of 1-2×10^3 cells per well (96 well plates). After a 24 hr incubation period, 10-fold serial diluted compounds (b 10^−4 M to 10^−10 M) were added to the culture medium and the cells were further incubated for 72 hrs. [^3H]-thymidine was added during the final 18 hr incubation period. After incubation with the [^3H]-thymidine, the cells were washed once with PBS, treated with trypsin if the cells were adherent, and then resuspended in water (hypotonic lysing of cells). The cellular extract was applied directly to a Tomtec Harvester 96. Using this instrument the extracted DNA is adsorbed onto filters, washed and the incorporated [^3H]-thymidine is then counted. The 50% cytotoxic concentration (CC50) was determined by comparing the radioactive counts per minute of the samples in the presence of the compounds against the control. The cellular toxicity of the compounds was also tested by WST-1 staining through assessing proliferation of MT-2, H9, Jurkat, U937, and CBMCs. The established cell lines were cultured in RPMI medium in 96-well plates at a density of 5×10^4 cells/well while CBMCs were plated at a concentration of 0.5×10^6/well. A 10-fold serial diluted (10^−4-10^−7 M) compound was added at day zero. At day 4, the cells were passaged by changing half medium containing appropriately diluted compound. The cell activities were assessed at day 7 using the WST-1 reagent (Boehringer Mannheim) following the protocol provided by the supplier.
(§2) In the WST-1 staining experiments, cell lines were cultured in RPMI medium in 96-well plates at a density of 5×10^4 cells/well. CBMCs were plated at a concentration of 0.5×10^6/well. Compounds (10^−4-10^−7 M) were added at day zero. Cell viability was assessed on day 7 using the WST-1 reagent (Boehringer Mannheim) following the protocol provided by the supplier.

[2] = Preliminary pharmacokinetic study in male adult rats; assay type: in vivo; settings: rat
Protocol: The bioavailability of the compounds were evaluated in male adult rats dosed intravenously through the tail vein (5 mg/kg) and orally (20 mg/kg). The plasma samples were collected at 2, 5, 15, 30, 60, 90, 120 and 240 minutes after intravenous dosing and 5, 15, 30, 60, 90, 120, 240 and 360 minutes after oral dosing.
Blood samples (1 ml) were collected from the rat tails into a vacutainer containing EDTA (3 ml) for both iv and po administrations. Plasma samples were prepared by centrifugation at 2000 ×g for 15 minutes at 4° C.
(§3) Plasma samples (diluted to 1 ml with water) were loaded onto the Abselut Nexus sorbent (# 1210-3100 ) and drawn through under low vacuum (approximately 5′′ Hg). One milliliter of deionized water was added to the sorbent and drawn through under vacuum. The extraction column was dried for 1 minute using a high vacuum (>10′′ Hg). One milliliter of methanol was added to the Abselut Nexus column and the eluent was collected at 1-2 ml/min. The eluent was evaporated to dryness using a Speed Vac, and the samples were reconstituted in 120 μl H2O; 100 μl was used for injection.

[3] = Pharmacokinetic study in male and female rats (single dose iv or po); assay type: in vivo, rat; settings: parameters of DAPD & DXG after administration of DAPD
Protocol: Compound A(−), DAPD, and DXG were administrated as a single dose, either intravenously through the jugular vein at 10 mg/kg or orally at 20, 125, 500, 1000 or 2000 mg/kg. All rats were fasted for 12 hours prior to po dosing treatment. The vehicle used for both iv and po administrations was 0.1% carboxymethylcellulose and 0.1% Tween 80 in distilled water, acidified to pH 3.15 with 1N HCl. Blood samples were taken from rats at the times shown in the schedule below for all oral dosing. From a total of 10 rats for each administration, seven time points were taken for the intravenous through the jugular vein dosing (2, 5, 15, 30, 60, 120 and 240 min) and for the oral dosing (5-360 min) at 20 mg/kg, whereas two additional time points at 480 and 1440 min were taken for the oral doses of 125-2000 mg/kg. As a result, each time point was in quadruplicate, except for the 1440 minute time point when blood samples were taken through the jugular vein from all the rats prior to being euthanized.
Blood samples (1 ml) were collected from the rat tails into a vacutainer containing EDTA (3 ml) for both iv and po administrations. Plasma samples were prepared by centrifugation at 2000×g for 15 minutes at 4° C.
as §3, with “(#1210-3100)” for “(# 1210-3100 )”

[4] = tested on: PBMCs; assay: Cellular toxicity by [3H]-thymidine uptake; assay type: cell-based, human; settings: Table 4, 72 hrs
Protocol: (§4) Cellular toxicity was assessed by [^3H]thymidine uptake (de Muys et al. 1999) and WST-1 staining. In the [^3H]thymidine uptake experiments, Molt-4, HT1080, DU-145, HepG2 and HSF, were plated at a concentration of 1-2×10^3 cells per well (96 well plates). PHA-stimulated PBMCs were cultured at a concentration of 4×10^4 cells per well. Following a 24 hr pre-incubation period, test compounds (10^−4 M to 10^−10 M) were added and the cells were incubated for an additional 72 hrs. [^3H]thymidine was added during the final 18 hr incubation period. The cells were then washed once with PBS, treated with trypsin if the cells were adherent, and resuspended in water (hypotonic lysing of cells). The cellular extract was applied directly to a Tomtec Harvester 96. The 50% cytotoxic concentration (CC50) was determined by comparing the radioactive counts per minute obtained from drug-tested samples to those obtained from the control (untreated) cells.

[5] = tested on: HSF; assay: Cellular toxicity by [3H]-thymidine uptake; assay type: cell-based; settings: Table 4, 72 hrs
Protocol: as §1, §4

[6] = tested on: Molt-4; assay: Cellular toxicity by [3H]-thymidine uptake; assay type: cell-based; settings: Table 4, 72 hrs
Protocol: as §1, §4

[7] = tested on: HT1080; assay: Cellular toxicity by [3H]-thymidine uptake; assay type: cell-based; settings: Table 4, 72 hrs
Protocol: as §1, §4

[8] = tested on: HepG-2; assay: Cellular toxicity by [3H]-thymidine uptake; assay type: cell-based; settings: Table 4, 72 hrs
Protocol: as §1, §4

[9] = tested on: DU-145; assay: Cellular toxicity by [3H]-thymidine uptake; assay type: cell-based; settings: Table 4, 72 hrs
Protocol: as §1, §4

[10] = tested on: HIV-1IIIB; assay: Anti-HIV-1 antiviral assay with HIV-1IIIB in various cell types (RT activity); assay type: cell-based; settings: HIV-1IIIB, MT-2 cells, determined by RT activity; read-out: EC50 (μM) ± S.D. in MT-2 cells
Protocol: ANTIVIRAL ASSAYS. The anti-HIV-1 activity of the compound A (−) were assessed by employing HIV-1IIIB in a variety of cell types as previously described (Gu et al., 1992, 1994, 1999; Rando et al., 1995; Salomon et al., 1994). Briefly, cells were incubated with virus at a multiplicity of infection (MOI) of 0.005 for T cell assays and an MOI of 0.5 for monocytic cell assays for 3 hrs. Unbound virus was then removed by washing the cells, followed by seeding the cells into a 96-well plate. The infected cells were cultured in the presence of a serial concentrations of the test compound for 5-7 days. The anti-HIV-1 efficacy was determined by testing for HIV-1 RT activity or p24 level in the cell culture supernatants. All assays were performed in duplicate. Zidovudine and/or lamivudine were used as controls in each experiment.
Activity of the compound A (−) against HIV-1 in various cells. Anti-HIV-1 activity of the compound A (−) were tested in different types of cells, including human peripheral […] cells (PBMCs), T-cell (MT-2 and MT-4) and monocytic cell (U937) lines. The compound A (−) had submicromolar EC50s against HIV-1IIIB in different types of cells tested (Table 2).

[11] = Cellular toxicity by WST-1 staining; assay type: cell-based; settings: human, CBMCs, Table 4, day 7, read-out: CC50 (μM) WST-1 CBMC
Protocol: as §1, §2

[12] = Body weight gaining effect in mice; assay type: in vivo; settings: intraperitoneally, mice (CDI, adult, male), 50 mg/kg/day for 5 days
[13] = Cellular toxicity by [3H]-thymidine uptake; assay type: cell-based; settings: human
Protocol: as §1, §4

AUC ([2]; oral 20 mg/kg): 1890 ng·h/mL
Cmax ([2]; oral 20 mg/kg): 1040 ng/mL
Oral BA (%) ([2]; oral 20 mg/kg): 7.42%
T1/2 ([2]; oral 20 mg/kg): 46.2 min
AUC ([3]; female rat, iv 10 mg/kg): 357.9 µg·min/mL
Cmax ([3]; female rat, iv 10 mg/kg): 22100 ng/mL
T1/2 ([3]; female rat, iv 10 mg/kg): 31.5 min
AUC ([3]; female rat, po 20 mg/kg): 307.2 µg·min/mL
Bioavailability (%) ([3]; female rat, po 20 mg/kg): 43%
Cmax ([3]; female rat, po 20 mg/kg): 2500 ng/mL
T1/2 ([3]; female rat, po 20 mg/kg): 31.3 min
Tmax ([3]; female rat, po 20 mg/kg): 45 min
AUC ([3]; male rat, iv 10 mg/kg): 271.2 µg·min/mL
Cmax ([3]; male rat, iv 10 mg/kg): 16200 ng/mL
T1/2 ([3]; male rat, iv 10 mg/kg): 36.2 min
AUC ([3]; male rat, po 20 mg/kg): 196.5 µg·min/mL
Bioavailability (%) ([3]; male rat, po 20 mg/kg): 36%
Cmax ([3]; male rat, po 20 mg/kg): 1960 ng/mL
T1/2 ([3]; male rat, po 20 mg/kg): 34 min
Tmax ([3]; male rat, po 20 mg/kg): 35 min
SMILES: Nc1nc(N)c2ncn([C@H]3CO[C@@H](CO)O3)c2n1 [DAPD, (−)-β-D -2,6-diaminopurine dioxolane]
CC50 [1]: > 100 µM
CC50 ([4]; read-out: CC50 (μM) [^3H-]TTP incorporation in: PBMC): > 500 µM
CC50 (μM) [^3H-]TTP incorporation in: HSF [5]: 500/350
CC50 ([6]; read-out: CC50 (μM) [^3H-]TTP incorporation in: Molt-4): > 500 µM
CC50 ([7]; read-out: CC50 (μM) [^3H-]TTP incorporation in: HT1080): > 500 µM
CC50 ([8]; read-out: CC50 (μM) [^3H-]TTP incorporation in: HepG2): ≥ 500 µM
CC50 ([9]; read-out: CC50 (μM) [^3H-]TTP incorporation in: U-145): > 500 µM

AUC ([2]; iv 5 mg/kg): 5150 ng·h/mL
Cmax ([2]; iv 5 mg/kg): 29020 ng/mL
T1/2 ([2]; iv 5 mg/kg): 37.2 min
AUC ([2]; oral 20 mg/kg): 910 ng·h/mL
Cmax ([2]; oral 20 mg/kg): 270 ng/mL
Oral BA (%) ([2]; oral 20 mg/kg): 4.43%
T1/2 ([2]; oral 20 mg/kg): 147 min
EC50 [10]: 0.065 ± 0.039 µM
SMILES: Nc1nc2c(ncn2[C@H]2CO[C@@H](CO)O2)c(=O)[nH]1 [DXG, (−)-β-D -1,3-dioxolane guanine]
CC50 [1]: > 100 µM
CC50 (μM) [^3H-]TTP incorporation in: PBMC [4]: >500/250
CC50 ([5]; read-out: CC50 (μM) [^3H-]TTP incorporation in: HSF): ≥ 500 µM
CC50 (μM) [^3H-]TTP incorporation in: Molt-4 [6]: >500/250
CC50 (μM) [^3H-]TTP incorporation in: HT1080 [7]: >500/250
CC50 (μM) [^3H-]TTP incorporation in: HepG2 [8]: >500/250
CC50 (μM) [^3H-]TTP incorporation in: U-145 [9]: >500/250

half-life ([2]; male, plasma, iv 5 mg/kg): 18.6 min
AUC ([2]; male, plasma, iv 5 mg/kg, read-out: AUC): 5600 ng·h/mL
Cmax ([2]; male, plasma, iv 5 mg/kg, read-out: Cmax): 13300 ng/mL
half-life ([2]; male, plasma, oral 20 mg/kg): 72 min
AUC ([2]; male, plasma, oral 20 mg/kg, read-out: AUC): 3080 ng·h/mL
Cmax ([2]; male, plasma, oral 20 mg/kg, read-out: Cmax): 1120 ng/mL
Oral BA (%) ([2]; oral 20 mg/kg): 13.75%
SMILES: Nc1nc(NC2CCC2)c2ncn([C@H]3CO[C@@H](CO)O3)c2n1 [Cmpd B (−), (−)-(2R,4R)-2-hydroxymethyl-4-(2′-amino-6′-cyclobutylamino-purine-9′-yl)-1,3-dioxolane]
CC50 at 7 days [11]: > 100 µM
Mice (50 mg/kg/d): body weight gaining effect [12]: No
CC50 (μM) [^3H-]TTP incorporation in: PBMC [4]: 80/90
CC50 at 72 h ([13]; DU-145 cells, Table 4, read-out: CC50 (μM) [^3H-]TTP incorporation in: U-145): 200 µM
CC50 at 72 h ([13]; HT1080 cells, Table 4, read-out: CC50 (μM) [^3H-]TTP incorporation in: HT1080): > 250 µM
CC50 at 72 h ([13]; HepG2 cells, Table 4, read-out: CC50 (μM) [^3H-]TTP incorporation in: HepG2): > 250 µM
CC50 at 72 h ([13]; Molt-4 cells, Table 4, read-out: CC50 (μM) [^3H-]TTP incorporation in: Molt-4): > 250 µM
